From publication PMC11466185, “Mechanisms and efficacy of small molecule latency-promoting agents to inhibit HIV reactivation ex vivo” (JCI Insight, 2024)
Values joined by “and” are separate entries in the source; they are usually repeats but may differ in a detail not shown here. Identical values can stand only once.

Tested on: HIV transcripts (TAR, LLTR, Pol, PolyA, TatRev)
Assay: Cell-associated HIV transcripts (RT-ddPCR) 6 days after anti-CD3/CD28 activation of PBMCs from ART-suppressed PWH
Assay type: cell-based
Conditions: for Pol / PolyA / TAR / TatRev: DMSO αCD3/28 = 100, Fig 4A; for LLTR/TAR / PolyA/LLTR / TatRev/PolyA: DMSO+CD3/28 = 1, Fig 4B, C and D
Method: Next, we evaluated the ability of the candidate LPAs to sustain the inhibitory effects during a prolonged ex vivo culture. To this end, PBMCs were cultured in the presence of individual drugs in DMSO or in DMSO alone as control, activated (anti-CD3/CD28), and harvested after 6 days. […] However, we decided to test the drug on day 6 because extra cells were available from some study participants.
Each drug was tested in PBMCs from at least 6 ART-suppressed study participants (except for KRIBB11, n = 5). PBMCs were aliquoted into wells at 6 × 10^6 cells/well. After activation, the cells were cultured with antiretrovirals in the presence of individual drugs in DMSO or DMSO alone as control. All conditions were tested in the presence of CD3/28 T cell–activating beads, except for the unactivated DMSO condition. After 6 days, total cellular RNA was extracted, and the progression through different stages of HIV transcription was quantified by measuring the levels of initiated (TAR), 5′ elongated (LLTR), midtranscribed/unspliced (Pol), completed (PolyA), and multiply spliced (TatRev) HIV transcripts. (A) The levels of all HIV transcripts were normalized to 1 μg of total cellular RNA and expressed as a percentage of the activated DMSO control (% of activated DMSO). Medians are shown as well as the individual values per study participant in different colors. (B–D) The effect of each drug on HIV transcriptional progression after activation was analyzed by the ratio of one HIV transcript to another. Ratios are independent of HIV infection frequency or normalization to cell numbers. Shown are the proportion of (B) all HIV transcripts that are elongated (LLTR/TAR), (C) elongated HIV transcripts that are completed (PolyA/LLTR), and (D) completed transcripts that are multiply spliced (TatRev/PolyA). Medians and IQR are presented, along with the individual values per study participant in different colors. P values were calculated using Wilcoxon’s signed-rank test: *P < 0.05.
PBMCs were isolated from fresh venous blood from 16 ART-suppressed HIV-infected study participants using Ficoll density gradient centrifugation. The cells were seeded at 6 × 10^6 cells/well and cultured with antiretrovirals (nevirapine and indinavir) to prevent new infection. On the next day, PBMCs were activated with anti-CD3/CD28–coated beads (Invitrogen) in the presence of 20 U/mL IL-2 and individual drugs in DMSO or DMSO alone as a control. Since we were limited in the PBMC yield per study participant, different study participants were used for different experiments (such as the initial screen, dose response, different time points, and studies in activated vs. unstimulated cells). In addition, the yields of PBMCs were sometimes insufficient to test all drugs for a given question or experiment.
For quantification of cell-associated HIV transcripts, PBMCs were harvested either after 24 hours or after 6 days. The cell viabilities were measured by trypan blue staining; then the cells were pelleted by centrifuging at 300g for 6 minutes and stored at –80°C. For quantification of virion-associated HIV RNA, cell culture supernatant was collected from 6 × 10^6 PBMCs that were treated and activated for 6 days as described above. Residual cells and cellular debris were subsequently removed from the supernatant by differential centrifugation (300g for 6 minutes, then 20,000g for 10 minutes), and the supernatant was stored at –80°C.
Total cellular DNA and RNA were extracted in parallel using Trireagent (Molecular Research Center) according to the manufacturer’s instructions, except for study participants 2147 and 2461 (Figure 4), for whom DNA and RNA were extracted using the QIAGEN AllPrep DNA/RNA/miRNA Universal Kit with on-column DNase I treatment of the RNA and the manufacturer’s modification to enhance recovery of short transcripts.

CNc1ccc([N+](=O)[O-])c(Nc2ccc3[nH]ncc3c2)n1 [KRIBB11]
LLTR HIV transcripts (DMSO αCD3/28 = 100) (2.5μM, 6 days after αCD3/28 activation, each column one participant): 71.6 and 44.44 and 38.82 and 82.14 and 98.47
Pol (participant 2027): 73.68
PolyA (participant 2027): 106.67
TAR (participant 2027): 139.39
TatRev (participant 2027): 11.11
LLTR/TAR (participant 2027): 0.5893
PolyA/LLTR (participant 2027): 1.299
TatRev/PolyA (participant 2027): 0.1042
Pol (participant 2147a): 33.33
PolyA (participant 2147a): 22.8
TAR (participant 2147a): 563.24
TatRev (participant 2147a): 46.99
LLTR/TAR (participant 2147a): 0.1271
PolyA/LLTR (participant 2147a): 0.3184
TatRev/PolyA (participant 2147a): 1.2464
Pol (participant 2256): 169.23
PolyA (participant 2256): 89.76
TAR (participant 2256): 111.27
TatRev (participant 2256): 84.19
LLTR/TAR (participant 2256): 0.8849
PolyA/LLTR (participant 2256): 0.9116
TatRev/PolyA (participant 2256): 1.489
PolyA (participant 2461): 176.92
TAR (participant 2461): 67.9
LLTR/TAR (participant 2461): 0.5717
PolyA/LLTR (participant 2461): 4.558
Pol (participant 2747): 8.97
PolyA (participant 2747): 19.67
TAR (participant 2747): 56.38
TatRev (participant 2747): 30
